ChEMBL document CHEMBL1212713, “Molecular docking and ligand specificity in fragment-based inhibitor discovery” (Nat Chem Biol, 2009)
Calls of active or inactive are those of the source.

Assay: Inhibition of beta lactamase CTX-M assessed as hydrolysis of beta lactam by spectrometry analysis
`O=C(O)CN1C(=O)O[C@@H](c2ccccc2)C1=O` showed a Ki of 700 µM. With `Nc1sc2c(c1-c1nn[nH]n1)CCCC2` the Ki was 3000 µM. `O=C(Nc1cccc(-c2nn[nH]n2)c1)[C@H](Sc1ccccc1)c1ccccc1` showed a Ki of 12 µM. In the case of `c1ccc(COc2cccc(-c3nn[nH]n3)c2)cc1`, the Ki is reported as 1000 µM. `O=C1C=C(S(=O)(=O)O)c2ccccc2C1=O` gave a Ki of 1000 µM. `Cn1cc(C(=O)Nc2cccc(-c3nn[nH]n3)c2)c2ccccc21` gave a Ki of 10 µM. Work on `O=C1C[C@H](S(=O)(=O)O)c2ccccc2C1=O` yielded a Ki of 700 µM.

Assay: Inhibition of beta lactamase CTX-M assessed as hydrolysis of beta lactam at 250 uM by spectrometry analysis
For `O=C(Nc1cccc(-c2nn[nH]n2)c1)[C@H](Sc1ccccc1)c1ccccc1`, the inhibition was “Active”. For `CC(=O)Nc1cc(NC(C)=O)cc(C(=O)Nc2cccc(-c3nn[nH]n3)c2)c1`, the inhibition was “Active”. With `Cn1cc(C(=O)Nc2cccc(-c3nn[nH]n3)c2)c2ccccc21` the inhibition was “Active”. With `O=C(Nc1cccc(-c2nn[nH]n2)c1)c1csc2c1CCCC2` the inhibition was “Active”. For `Cc1nc2cc(C(=O)Nc3cccc(-c4nn[nH]n4)c3)ccc2n1-c1ccccc1`, the inhibition was “Active”.

Assay: Inhibition of beta lactamase CTX-M assessed as hydrolysis of beta lactam up to 5 mM by spectrometry analysis
With `Cc1ccc(NC(=O)CSc2nnc(CCC(=O)O)c(=O)[nH]2)cc1` the inhibition was “inactive”. With `Cc1onc(C(N)=O)c1C(=O)Nc1nccs1` the inhibition was “inactive”. For `O=C(O)c1ccccc1N[C@H](C(=O)O)c1ccccc1`, the inhibition was “inactive”. For `O=C(Nc1nncs1)c1ccccc1O`, the inhibition was “inactive”. For `O=C(O)[C@@H]1C[C@@H](C(=O)O)N1`, the inhibition was “inactive”. For `O=C(O)[C@H]1C[C@H](O)CN1Cc1ccccc1`, the inhibition was “inactive”. In the case of `Cc1ccc(N[C@H](CC(=O)c2ccccc2)C(=O)O)cc1C`, the inhibition is reported as “inactive”. In the case of `C[C@@H](NC(=O)CNC(=O)CN)C(=O)O`, the inhibition is reported as “inactive”. In the case of `C[C@@H]1C[C@H](C)CN(S(=O)(=O)c2cccc(C(=O)O)c2)C1`, the inhibition is reported as “inactive”. In the case of `Cc1cc(C)c2nc(CC(=O)O)[nH]c2c1`, the inhibition is reported as “inactive”. In the case of `CC(=O)Nc1ccc(Sc2ccccc2C(=O)O)c(C(=O)O)c1`, the inhibition is reported as “inactive”. For `Cc1cc(C(=O)Nc2ccc(CC(=O)O)cc2)c(C)o1`, the inhibition was “inactive”. For `O=C(O)[C@H]1CC(=O)N(C2CCCC2)C1`, the inhibition was “inactive”. With `O=C(Nc1nncs1)c1ccccc1F` the inhibition was “inactive”. In the case of `O=C(O)c1cnc(O)cc1O`, the inhibition is reported as “inactive”. In the case of `O=C(O)c1cccc(S(=O)(=O)Nc2ccccn2)c1`, the inhibition is reported as “inactive”. In the case of `O=C(O)c1cccc(OCc2cn3ccccc3n2)c1`, the inhibition is reported as “inactive”. For `O=C(O)C[C@@H]1C(=O)NC(=S)N1c1ccccc1`, the inhibition was “inactive”. In the case of `O=C(O)[C@@H](Cc1ccco1)P(=O)(O)CN1CCOCC1`, the inhibition is reported as “inactive”. For `O=C(O)c1sc(C(=O)O)c(-c2ccco2)c1-c1ccco1`, the inhibition was “inactive”. For `O=C(O)CNC(=O)c1cccc2ccccc12`, the inhibition was “inactive”. For `O=C(O)c1cc(=O)cc2n1CCNC2=O`, the inhibition was “inactive”. For `O=C(O)CSc1nc(O)cc(O)n1`, the inhibition was “inactive”. With `O=C(O)c1cn(S(=O)(=O)c2ccccc2)c2ccccc12` the inhibition was “inactive”. With `O=C(CC1=NO[C@H](c2ccccc2O)N1)N1CCCC1` the inhibition was “inactive”. In the case of `O=C(O)c1cccc(-c2nc3ccccc3[nH]2)c1`, the inhibition is reported as “inactive”. For `O=C1C=CC(=O)[C@@H]2CC=C[C@@H](C(=O)O)[C@H]12`, the inhibition was “inactive”. In the case of `O=C(O)CC(=O)Nc1ccccc1`, the inhibition is reported as “inactive”. With `O=C1C=CC(=O)C(c2cccc(C(=O)O)c2)=C1` the inhibition was “inactive”. In the case of `O=C(O)c1ccc(=O)oc1`, the inhibition is reported as “inactive”. For `C=C1C(=O)OC=C1C(=O)O`, the inhibition was “inactive”. With `CS(=O)(=O)c1cccc(C(=O)O)c1` the inhibition was “inactive”. For `O=C(O)[C@@H]1C(=O)NC[C@H]1c1ccccc1`, the inhibition was “inactive”. For `O=C(O)C[C@@H](NC(=O)c1ccccc1F)c1ccc2c(c1)OCO2`, the inhibition was “inactive”. For `O=C(O)c1cccc(COc2ccc(CO)cc2)c1`, the inhibition was “inactive”. For `O=C(O)c1cccc(S(=O)(=O)Nc2ccccc2O)c1`, the inhibition was “inactive”. For `O=C(O)c1c[nH]c(=O)[nH]c1=O`, the inhibition was “inactive”. With `O=C(O)c1ccccc1C(=O)c1ccc2c(c1)CCC2` the inhibition was “inactive”. With `Cc1[nH]c(C(=O)O)c(C)c1[C@H](C)O` the inhibition was “inactive”. For `O=C(O)c1ccc(Cl)c(N2C(=O)c3ccccc3C2=O)c1`, the inhibition was “inactive”. With `O=C(O)c1ccc(Cl)c(N2CCCC2=O)c1` the inhibition was “inactive”. For `CC(=O)c1c(O)c(C(=O)O)c(C)oc1=O`, the inhibition was “inactive”. In the case of `O=C1C[C@H](C(=O)O)c2ccccc21`, the inhibition is reported as “inactive”. With `Cc1ccc(NC(=O)[C@H]2CCC(=O)N2)c(C)c1` the inhibition was “inactive”. With `O=C(O)C[C@H](C(=O)NCc1ccccc1)c1ccccc1` the inhibition was “inactive”. With `CC(=O)C1=C(O)C(O)N([C@@H](C)C(=O)O)[C@H]1c1ccccc1` (some centres not stated) the inhibition was “inactive”. With `O=C(O)C1CC(O)CN1` (configuration not stated) the inhibition was “inactive”. With `CC(=O)NCC(=O)O` the inhibition was “inactive”. In the case of `O=C(O)C[C@@H]1NC(=O)[C@H](Cc2ccccc2)NC1=O`, the inhibition is reported as “inactive”. For `O=C(O)[C@H]1[C@H](C(=O)NCCO)[C@H]2C=C[C@H]1C2`, the inhibition was “inactive”. For `C[C@@H](Oc1cc(O)c2c(=O)cc(-c3ccccc3)oc2c1)C(=O)O`, the inhibition was “inactive”. In the case of `C[C@H](NC(=O)c1ccccc1Cl)C(=O)O`, the inhibition is reported as “inactive”. With `CC(=O)Nc1sccc1C(=O)O` the inhibition was “inactive”. With `O=C1C=C(O)[C@@H](C(=O)O)[C@H](c2ccccc2)C1` the inhibition was “inactive”. With `Cc1cc(O)nc(O)c1C(=O)O` the inhibition was “inactive”. In the case of `CC(=O)Nc1nc(C(=O)O)cs1`, the inhibition is reported as “inactive”. For `O=C(O)c1n[nH]c2c1CCC2`, the inhibition was “inactive”. In the case of `O=C(O)Cc1ccccc1O`, the inhibition is reported as “inactive”. For `CCCOc1ccc([C@H](CC(=O)O)NC(=O)c2ccc(F)cc2)cc1`, the inhibition was “inactive”. In the case of `Cc1cc(C)cc(NC(=O)N(CCC(=O)O)Cc2ccccc2)c1`, the inhibition is reported as “inactive”. For `Cc1ccccc1C(=O)N[C@@H](C)C(=O)O`, the inhibition was “inactive”. For `O=C(O)c1cccc(N2C(=O)c3ccc(Br)cc3C2=O)c1`, the inhibition was “inactive”. With `O=CNc1ccccc1C(=O)O` the inhibition was “inactive”. In the case of `Cc1ccc(NC(=O)/C=C/C(=O)O)cc1`, the inhibition is reported as “inactive”. With `C[C@H]1Cc2ccccc2N1C(=O)CSc1nnnn1C1CCCC1` the inhibition was “inactive”. For `C[C@H]1CCc2n[nH]c(C(=O)O)c2C1`, the inhibition was “inactive”. For `CCOC(=O)c1c(C(=O)O)[nH]c(C(=O)OCc2ccccc2)c1C`, the inhibition was “inactive”. In the case of `O=C(O)Cc1ccc(C(=O)c2cccs2)s1`, the inhibition is reported as “inactive”. For `O=C(O)c1ccnc([C@@H]2CCCCC2=O)c1`, the inhibition was “inactive”. For `Cc1ccc(C(=O)NCC(=O)O)s1`, the inhibition was “inactive”. In the case of `O=C(O)C[C@H](NO)c1ccccc1`, the inhibition is reported as “inactive”. In the case of `O=C(O)c1ccc(=O)[nH]n1`, the inhibition is reported as “inactive”. In the case of `Cc1oc(S(=O)(=O)N2CCCCC2)cc1C(=O)O`, the inhibition is reported as “inactive”. In the case of `Cc1ccc(-n2nc(C(N)=O)c(=O)cc2C)cc1`, the inhibition is reported as “inactive”. In the case of `CCC(=O)Nc1ccccc1C(=O)C(=O)O`, the inhibition is reported as “inactive”. In the case of `Cc1oncc1C(=O)O`, the inhibition is reported as “inactive”. In the case of `Cc1cc(C(=O)NCc2oc(C(C)(C)C)cc2C(=O)O)c(C)o1`, the inhibition is reported as “inactive”. In the case of `O=C(O)[C@@H]1C[C@H]1C(=O)N1CCc2ccccc21`, the inhibition is reported as “inactive”. In the case of `C=C(CC)N/N=C1\NC(=O)[C@H](CC(=O)O)S1`, the inhibition is reported as “inactive”. For `CC(=O)Nc1ccc(OS(=O)(=O)c2cccc(C(=O)O)c2)cc1`, the inhibition was “inactive”. With `CC(C)(C)c1ccc([C@@H](CC(=O)O)NC(=O)c2ccccc2F)cc1` the inhibition was “inactive”. In the case of `COc1ccc(C(=O)O)cc1S(=O)(=O)N1CCCCCC1`, the inhibition is reported as “inactive”. For `O=C(O)c1cc(=O)c2cc(F)ccc2o1`, the inhibition was “inactive”. With `N#Cc1ccsc1NC(=O)c1ccccn1` the inhibition was “inactive”. With `O=C(O)Cc1cc(=O)[nH]c2ccccc12` the inhibition was “inactive”. For `O=C(O)[C@@H]1CNC(Cc2ccc(Cl)cc2)=N1`, the inhibition was “inactive”. With `O=C(O)CN1C(=O)c2ccc(F)cc2C1=O` the inhibition was “inactive”. With `NS(=O)(=O)c1cccc(C(=O)O)c1` the inhibition was “inactive”. In the case of `O=C(O)/C=C/c1ccc(O)c(O)c1`, the inhibition is reported as “inactive”. With `Cc1cc(C)cc(N2C[C@@H](C(=O)O)CC2=O)c1` the inhibition was “inactive”. In the case of `O=C1NC(=O)[C@H](Nc2ccccc2C(=O)O)S1`, the inhibition is reported as “inactive”. In the case of `O=C(O)/C=C/c1ccc(O)cc1`, the inhibition is reported as “inactive”. For `O=C(O)Cn1cnc2ccccc21`, the inhibition was “inactive”. For `Cc1ccoc1C(=O)NCc1occc1C(=O)O`, the inhibition was “inactive”.

Assay: Inhibition of beta lactamase AmpC assessed as hydrolysis of beta lactam by spectrometry analysis
For `O=C(O)CN1C(=O)O[C@@H](c2ccccc2)C1=O`, the Ki was 3500 µM.
